According to the CheMixHub viscosity set:
± gives the uncertainty stated by the source.

Assay: xn = mol fraction of the nth substance listed

CCCCNCCCC + CCC(C)O
viscosity [mPa·s]
Details | 298.15 K | 303.15 K | 308.15 K | 318.15 K
101 kPa, x1 = 0.008423 | – | 2.446 ± 0.016 | – | –
101 kPa, x1 = 0.01776 | – | 2.42 ± 0.016 | – | –
101 kPa, x1 = 0.02719 | – | 2.398 ± 0.016 | – | –
101 kPa, x1 = 0.03174 | – | 2.389 ± 0.016 | – | –
101 kPa, x1 = 0.04204 | – | 2.369 ± 0.016 | – | –
101 kPa, x1 = 0.0502 | – | 2.353 ± 0.016 | – | –
101 kPa, x1 = 0.06011 | – | 2.332 ± 0.016 | – | –
101 kPa, x1 = 0.06621 | – | 2.32 ± 0.015 | – | –
101 kPa, x1 = 0.07608 | – | 2.299 ± 0.015 | – | –
101.33 kPa, x1 = 0.0594 | 2.662 | – | 1.888 | 1.409
101.33 kPa, x1 = 0.0839 | 2.525 | – | 1.79 | 1.328
101.33 kPa, x1 = 0.1282 | 2.305 | – | 1.657 | 1.24
101.33 kPa, x1 = 0.1858 | 2.06 | – | 1.516 | 1.147
101.33 kPa, x1 = 0.2618 | 1.787 | – | 1.344 | 1.054
101.33 kPa, x1 = 0.3612 | 1.511 | – | 1.181 | 0.948
101.33 kPa, x1 = 0.4306 | 1.373 | – | 1.089 | 0.886
101.33 kPa, x1 = 0.5042 | 1.246 | – | 1.012 | 0.827
101.33 kPa, x1 = 0.5658 | 1.16 | – | 0.952 | 0.784
101.33 kPa, x1 = 0.6215 | 1.095 | – | 0.898 | 0.753
101.33 kPa, x1 = 0.6856 | 1.031 | – | 0.855 | 0.712
101.33 kPa, x1 = 0.7458 | 0.986 | – | 0.818 | 0.696
101.33 kPa, x1 = 0.794 | 0.959 | – | 0.803 | 0.684
101.33 kPa, x1 = 0.8584 | 0.905 | – | 0.76 | 0.681
101.33 kPa, x1 = 0.9138 | 0.859 | – | 0.733 | 0.661
